The experiment concerns the target T1, glucocerebrosidase (Gcase) (Homo sapiens, UniProt P04062).
T1 construct: micellar solution containing 10 nM GCase and 100 nM saposin C
T1 sequence (P04062 40-536): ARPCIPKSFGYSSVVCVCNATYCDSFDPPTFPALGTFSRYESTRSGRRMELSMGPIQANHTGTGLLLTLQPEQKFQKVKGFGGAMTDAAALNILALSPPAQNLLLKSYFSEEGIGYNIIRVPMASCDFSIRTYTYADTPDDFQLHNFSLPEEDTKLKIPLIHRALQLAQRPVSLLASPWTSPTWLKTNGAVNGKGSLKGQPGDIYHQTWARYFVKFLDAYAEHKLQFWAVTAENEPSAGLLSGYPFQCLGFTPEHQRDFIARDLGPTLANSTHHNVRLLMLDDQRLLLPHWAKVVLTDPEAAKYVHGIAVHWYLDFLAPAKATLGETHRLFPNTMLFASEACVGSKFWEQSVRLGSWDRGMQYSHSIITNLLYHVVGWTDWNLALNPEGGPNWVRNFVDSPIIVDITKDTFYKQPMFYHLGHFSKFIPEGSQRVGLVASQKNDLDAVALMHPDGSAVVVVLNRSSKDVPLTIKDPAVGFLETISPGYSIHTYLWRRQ
Put plainly: Glucocerebrosidase (Gcase) activation assay with 4-methylumbelliferyl-beta-D-glucopyranoside substrate, saposin C and phosphatidylserine/triton micelles, fluorescence readout. It is filed as biochemical. As to conditions: Table 3A. How it is done: The ability of exemplary compounds to activate glucocerebrosidase (Gcase) was measured.
A 484 μL aliquot of a 1.0 mg/mL solution of phosphatidylserine (PS) (Sigma P7769) in chloroform was evaporated under a stream of nitrogen for 1 hour. The lipid film was dissolved over 4 minutes of vigorous vortexing in 40 mL of 176 mM K2HPO4/50 mM citric acid (pH 4.7) containing 7.5 μL of triton X-100, resulting in a mixed micellar preparation with a composition of 0.32 mM triton and 0.37 mol % PS. 4-Methylumbelliferyl-beta-D-glucopyranoside (ACROS-337025000) was dissolved in the micellar solution to a final concentration of 2 mM for use as the reaction substrate.
Test compounds were diluted to the desired concentrations with dimethylsulfoxide (DMSO) from 10 mM stocks, and 0.41 μL of the DMSO compound mixture was added to 100 μL of micellar solution containing 10 nM GCase and 100 nM saposin C (Enzo ALX-201-262-C050). Pre-incubation was allowed to occur for 30 minutes at room temperature, after which the reaction was initiated by combining 25 μL of substrate solution with 25 μL of compound/GCase/saposin mixture. The reaction proceeded for 15 minutes at room temperature and was stopped by adding 150 μL of 1M glycine, pH 12.5. The endpoint of the reaction was monitored by measuring fluorescence intensity (excitation: 365 nm; emission: 440 nm) on a SpectraMax i3 instrument (Molecular Devices). Test compounds were screened at 1.0 and 0.1 μM final concentration, and subsequent 8-point dose response curves were obtained using 3-fold dilutions from a maximum final concentration of 5 μM.

On to `Cc1cc(C)n2ncc(C(=O)N[C@@H](C)C3CC3)c2n1` [III-1], for which the “Percent Gcase Activation, 0.1 μM Test Compound” value is given as “* (less than 10% Gcase activation)” and the “Percent Gcase Activation, 1 μM Test Compound” value is “++ (Gcase activation in the range of 30% up to 60%)”.

As to `Cc1cc(C)n2ncc(C(=O)NC(C)(C)C3CC3)c2n1` [III-2], the “Percent Gcase Activation, 0.1 μM Test Compound” value is recorded as “** (Gcase activation in the range of 10% up to 20%)” and the “Percent Gcase Activation, 1 μM Test Compound” value is “+++ (Gcase activation greater than 60%)”.

`Cc1cc(C)n2ncc(C(=O)N[C@H](C)C3CCCCC3)c2n1` [III-3]: the “Percent Gcase Activation, 0.1 μM Test Compound” value was “*** (greater than 20% Gcase activation)” and the “Percent Gcase Activation, 1 μM Test Compound” value is “+++ (Gcase activation greater than 60%)”.

Consider `Cc1cc(C)n2ncc(C(=O)N[C@@H](C)C3CCCCC3)c2n1` [III-4], for which the “Percent Gcase Activation, 0.1 μM Test Compound” value was “*** (greater than 20% Gcase activation)” and the “Percent Gcase Activation, 1 μM Test Compound” value is given as “+++ (Gcase activation greater than 60%)”.

For `Cc1cc(C)n2ncc(C(=O)NC(CC(C)C)C3CC3)c2n1` (stereo not shown) [III-5], the “Percent Gcase Activation, 0.1 μM Test Compound” value was “*** (greater than 20% Gcase activation)” and the “Percent Gcase Activation, 1 μM Test Compound” value is “+++ (Gcase activation greater than 60%)”.

`CNc1cc(C)n2ncc(C(=O)N[C@@H](C)C3CC3)c2n1` [III-6]: the “Percent Gcase Activation, 0.1 μM Test Compound” value is listed as “* (less than 10% Gcase activation)” and the “Percent Gcase Activation, 1 μM Test Compound” value was “++ (Gcase activation in the range of 30% up to 60%)”.

Regarding `Cc1cc(-c2ccc(F)cc2)nc2c(C(=O)N[C@@H](C)C3CC3)cnn12` [III-7], the “Percent Gcase Activation, 0.1 μM Test Compound” value is reported as “** (Gcase activation in the range of 10% up to 20%)” and the “Percent Gcase Activation, 1 μM Test Compound” value is recorded as “+++ (Gcase activation greater than 60%)”.

In the case of `Cc1cc(-c2ccc(F)cc2)n2ncc(C(=O)N[C@@H](C)C3CC3)c2n1` [III-8], the “Percent Gcase Activation, 0.1 μM Test Compound” value is recorded as “* (less than 10% Gcase activation)” and the “Percent Gcase Activation, 1 μM Test Compound” value is “+ (less than 30% Gcase activation)”.

For the compound `Cc1cc(C)n2ncc(C(=O)NC(C3CC3)C(F)(F)F)c2n1` (stereo not shown) [III-9], the “Percent Gcase Activation, 0.1 μM Test Compound” value is on record as “** (Gcase activation in the range of 10% up to 20%)” and the “Percent Gcase Activation, 1 μM Test Compound” value is reported as “+++ (Gcase activation greater than 60%)”.

With `Cc1cc(C)n2ncc(C(=O)N[C@H](C3CC3)C(F)(F)F)c2n1` [III-10], the “Percent Gcase Activation, 0.1 μM Test Compound” value is listed as “** (Gcase activation in the range of 10% up to 20%)” and the “Percent Gcase Activation, 1 μM Test Compound” value was “+++ (Gcase activation greater than 60%)”.

Regarding `Cc1cc(C)n2ncc(C(=O)N[C@@H](C3CC3)C(F)(F)F)c2n1` [III-11], the “Percent Gcase Activation, 0.1 μM Test Compound” value is “** (Gcase activation in the range of 10% up to 20%)” and the “Percent Gcase Activation, 1 μM Test Compound” value was “+++ (Gcase activation greater than 60%)”.

As to `Cc1cc(C)n2ncc(C(=O)NC3(C4CC4)CC3)c2n1` [III-12], the “Percent Gcase Activation, 0.1 μM Test Compound” value is reported as “* (less than 10% Gcase activation)” and the “Percent Gcase Activation, 1 μM Test Compound” value is “+ (less than 30% Gcase activation)”.

Regarding `Cc1cc(C)n2ncc(C(=O)NC(C)(C)C3CC4(CCC4)C3)c2n1` [III-13], the “Percent Gcase Activation, 0.1 μM Test Compound” value was “*** (greater than 20% Gcase activation)” and the “Percent Gcase Activation, 1 μM Test Compound” value was “+++ (Gcase activation greater than 60%)”.

As for `Cc1cc(Cl)n2ncc(C(=O)NC(C)(C)C3CC3)c2n1` [III-14], the “Percent Gcase Activation, 0.1 μM Test Compound” value is “** (Gcase activation in the range of 10% up to 20%)” and the “Percent Gcase Activation, 1 μM Test Compound” value is reported as “++ (Gcase activation in the range of 30% up to 60%)”.

Regarding `Cc1cc(Cl)nc2c(C(=O)NC(C)(C)C3CC3)cnn12` [III-15], the “Percent Gcase Activation, 0.1 μM Test Compound” value was “*** (greater than 20% Gcase activation)” and the “Percent Gcase Activation, 1 μM Test Compound” value is “+++ (Gcase activation greater than 60%)”.

Take `Cc1cc(-c2ccccn2)nc2c(C(=O)NC(C)(C)C3CC3)cnn12` [III-16]: the “Percent Gcase Activation, 0.1 μM Test Compound” value was “** (Gcase activation in the range of 10% up to 20%)” and the “Percent Gcase Activation, 1 μM Test Compound” value is on record as “+++ (Gcase activation greater than 60%)”.

`Cc1cc(-c2ccccn2)n2ncc(C(=O)NC(C)(C)C3CC3)c2n1` [III-17]: the “Percent Gcase Activation, 0.1 μM Test Compound” value is on record as “* (less than 10% Gcase activation)” and the “Percent Gcase Activation, 1 μM Test Compound” value is recorded as “+ (less than 30% Gcase activation)”.

As to `Cc1cc(-c2cccnc2)nc2c(C(=O)NC(C)(C)C3CC3)cnn12` [III-18], the “Percent Gcase Activation, 0.1 μM Test Compound” value is reported as “** (Gcase activation in the range of 10% up to 20%)” and the “Percent Gcase Activation, 1 μM Test Compound” value is “+++ (Gcase activation greater than 60%)”.

For `Cc1cc(-c2cccnc2)n2ncc(C(=O)NC(C)(C)C3CC3)c2n1` [III-19], the “Percent Gcase Activation, 0.1 μM Test Compound” value was “* (less than 10% Gcase activation)” and the “Percent Gcase Activation, 1 μM Test Compound” value was “+ (less than 30% Gcase activation)”.

As to `Cc1cc(-c2ccncc2)nc2c(C(=O)NC(C)(C)C3CC3)cnn12` [III-20], the “Percent Gcase Activation, 0.1 μM Test Compound” value is “* (less than 10% Gcase activation)” and the “Percent Gcase Activation, 1 μM Test Compound” value is “+++ (Gcase activation greater than 60%)”.

Turning to `Cc1cc(-c2ccncc2)n2ncc(C(=O)NC(C)(C)C3CC3)c2n1` [III-21], the “Percent Gcase Activation, 0.1 μM Test Compound” value was “* (less than 10% Gcase activation)” and the “Percent Gcase Activation, 1 μM Test Compound” value is listed as “+ (less than 30% Gcase activation)”.

Regarding `Cc1cc(N2CCCCC2)n2ncc(C(=O)NC(C)(C)C3CC3)c2n1` [III-22], the “Percent Gcase Activation, 0.1 μM Test Compound” value was “* (less than 10% Gcase activation)” and the “Percent Gcase Activation, 1 μM Test Compound” value is listed as “++ (Gcase activation in the range of 30% up to 60%)”.

Consider `Cc1cc(N2CCCCC2)nc2c(C(=O)NC(C)(C)C3CC3)cnn12` [III-23], for which the “Percent Gcase Activation, 0.1 μM Test Compound” value is given as “*** (greater than 20% Gcase activation)” and the “Percent Gcase Activation, 1 μM Test Compound” value is reported as “+++ (Gcase activation greater than 60%)”.

With `Cc1cc(-c2ccccn2)n2ncc(C(=O)N[C@@H](C)C3CC3)c2n1` [III-25], the “Percent Gcase Activation, 0.1 μM Test Compound” value is “* (less than 10% Gcase activation)” and the “Percent Gcase Activation, 1 μM Test Compound” value was “+ (less than 30% Gcase activation)”.

As for `Cc1cc(-c2cccnc2)n2ncc(C(=O)N[C@@H](C)C3CC3)c2n1` [III-27], the “Percent Gcase Activation, 0.1 μM Test Compound” value was “* (less than 10% Gcase activation)” and the “Percent Gcase Activation, 1 μM Test Compound” value was “+ (less than 30% Gcase activation)”.

On to `Cc1cc(-c2ccncc2)nc2c(C(=O)NC(C)C3CC3)cnn12` (stereo not shown) [III-28], for which the “Percent Gcase Activation, 0.1 μM Test Compound” value is given as “* (less than 10% Gcase activation)” and the “Percent Gcase Activation, 1 μM Test Compound” value is reported as “++ (Gcase activation in the range of 30% up to 60%)”.

In the case of `Cc1cc(-c2ccncc2)n2ncc(C(=O)N[C@@H](C)C3CC3)c2n1` [III-29], the “Percent Gcase Activation, 0.1 μM Test Compound” value is listed as “* (less than 10% Gcase activation)” and the “Percent Gcase Activation, 1 μM Test Compound” value is recorded as “+ (less than 30% Gcase activation)”.

As for `Cc1cc(N2CCCCC2)n2ncc(C(=O)N[C@@H](C)C3CC3)c2n1` [III-30], the “Percent Gcase Activation, 0.1 μM Test Compound” value is “* (less than 10% Gcase activation)” and the “Percent Gcase Activation, 1 μM Test Compound” value was “+ (less than 30% Gcase activation)”.

For the compound `Cc1cc(N2CCCCC2)nc2c(C(=O)NC(C)C3CC3)cnn12` (stereo not shown) [III-31], the “Percent Gcase Activation, 0.1 μM Test Compound” value was “*** (greater than 20% Gcase activation)” and the “Percent Gcase Activation, 1 μM Test Compound” value is reported as “+++ (Gcase activation greater than 60%)”.

Turning to `Cc1cc(-c2ccc(F)cc2)nc2c(C(=O)N[C@@H](C)C3CC3)c(Cl)nn12` [III-32], the “Percent Gcase Activation, 0.1 μM Test Compound” value was “** (Gcase activation in the range of 10% up to 20%)” and the “Percent Gcase Activation, 1 μM Test Compound” value is given as “+++ (Gcase activation greater than 60%)”.

In the case of `Cc1cc(-c2ccc(F)cc2)n2nc(Cl)c(C(=O)N[C@@H](C)C3CC3)c2n1` [III-33], the “Percent Gcase Activation, 0.1 μM Test Compound” value is on record as “* (less than 10% Gcase activation)” and the “Percent Gcase Activation, 1 μM Test Compound” value was “++ (Gcase activation in the range of 30% up to 60%)”.

As to `Cc1cc(C)n2nc(Cl)c(C(=O)N[C@@H](C)C3CC3)c2n1` [III-34], the “Percent Gcase Activation, 0.1 μM Test Compound” value is “* (less than 10% Gcase activation)” and the “Percent Gcase Activation, 1 μM Test Compound” value is reported as “+ (less than 30% Gcase activation)”.
